Results: US7960425B2, “Pyrazole compounds and thrombopoietin receptor activators” (Nissan Chemical Industries, Ltd., priority 2005, dated 2011)

What was measured:
[1] = tested on: Human bone marrow CD34+ cells; experiment: Megakaryocyte colony stimulating activity (megakaryocyte colony forming method); type: cell-based; details: 11 days, MegaCult-C, colonies of at least 8 stained megakaryocyte cells, average of at least 2 wells
Procedure: The action of the compounds of Synthetic Examples 2 to 6 of the present invention and Reference Synthetic Examples 6 to 7 on the proliferation, differentiation and maturation of megakaryocyte cells was measured by the megakaryocyte colony forming method using human bone marrow cells. Human bone marrow CD34^+ cells (Cambrex Bio Science Walkersville) were incubated on 2-well chamber slide for 11 days in a CO2 incubator (5% Co2, 37° C.) using MegaCult™-C (StemCell Technologies) containing 0.1% (v/v) of the compounds of Synthetic Examples dissolved in dimethyl sulfoxide. After dehydration and fixation, the cells were stained with an anti-glycoprotein IIb/IIIa antibody in accordance with the instruction by the manufacturer. The colonies consisting of at least 8 stained megakaryocyte cells in each well were counted under a microscope. The megakaryocyte colony counts in at least 2 wells were averaged.

[2] = Plasma concentration after oral administration to rats, determined by UT7/EPO-mpl proliferation bioassay; type: in vivo; details: rat, male Sprague-Dawley rats, 10 mg/kg, between 0.5 and 2 hours after administration, read-out: Cmax (maximum concentration in blood)
Procedure: Each of the compounds of Synthetic Examples was suspended in a 99/1 liquid mixture of 0.5% methylcellulose/Polyoxyethylene Sorbitan Monooleate and orally administered to 7-week-old male Sprague-Dawley rats (Japan SLC, Inc.) at a dose of 10 mg/kg/10 mL through a stomach tube. Between 0.5 and 2 hours after the administration of the compounds, blood was periodically collected from the cervical vein with heparin as the anticoagulant. The blood was centrifuged at 3500 min^−1 for 10 minutes to obtain plasma. The plasma was added to the assay system used for assay of proliferation of a thrombopoietin-dependent cell line UT7/EPO-mpl in Assay Example 1 at final concentrations of from 0.1 to 3%, and the cell proliferation was assayed. The concentration of each compound in plasma was calculated from the cell proliferation in the presence of plasma by comparison with a standard curve of cell proliferation versus compound concentration prepared for each compound. The maximum concentration (Cmax) of each of the compounds of Synthetic Examples in blood between 0.5 and 2 hours after the oral administration to rats is shown in Table 3.

COCCNC(=O)c1ccc(C(=O)NN=C(C)c2nn(C)c(-c3ccc(C(F)(F)F)cc3)c2O)s1 [Synthetic Example 5, 5-{1-[4-hydroxy-1-methyl-5-(4-trifluoromethylphenyl)-1H-pyrazol-3-yl]ethylidenehydrazinocarbonyl}thiophene-2-carboxylic Acid 2-methoxyethylamide]
Colony count at 1 μg/mL [1]: 335

CCN(CC)C(=O)c1ccc(C(=O)NN=C(C)c2nn(C)c(-c3ccc(C(F)(F)F)cc3)c2O)s1.[K] [Synthetic Example 1, 5-{1-[4-hydroxy-1-methyl-5-(4-trifluoromethylphenyl)-1H-pyrazol-3-yl]ethylidenehydrazinocarbonyl}thiophene-2-carboxylic Acid Diethylamide Potassium Salt]
Cmax [2]: 760 ng/mL

CC(=NNC(=O)c1ccc(C(=O)NCc2ccncc2)s1)c1nn(C)c(-c2ccc(Cl)c(Cl)c2)c1O [Synthetic Example 6, 5-{1-[5-(3,4-dichlorophenyl)-4-hydroxy-1-methyl-1H-pyrazol-3-yl]ethylidenehydrazinocarbonyl}thiophene-2-carboxylic Acid 4-picolylamide]
Colony count at 1 μg/mL [1]: 173

C/C(=N\NC(=O)c1ccc(C(=O)O)s1)c1nn(C)c(-c2ccc(C(C)(C)C)cc2)c1O [Reference Synthetic Ex. 6, reference compound]
Colony count at 1 μg/mL [1]: 1

CC(=NNC(=O)c1ccc(C(=O)NC(C)C)s1)c1nn(C)c(-c2ccc(C(F)(F)F)cc2)c1O [Synthetic Example 3, 5-{1-[4-hydroxy-1-methyl-5-(4-trifluoromethylphenyl)-1H-pyrazol-3-yl]ethylidenehydrazinocarbonyl}thiophene-2-carboxylic Acid 2-propylamide]
Colony count at 1 μg/mL [1]: 141

CC(=NNC(=O)c1ccc(C(=O)NCc2ccncc2)s1)c1nn(C)c(-c2ccc(C(F)(F)F)cc2)c1O [Synthetic Example 4, 5-{1-[4-hydroxy-1-methyl-5-(4-trifluoromethylphenyl)-1H-pyrazol-3-yl]ethylidenehydrazinocarbonyl}thiophene-2-carboxylic Acid 4-picolyamide]
Colony count at 1 μg/mL [1]: 111

CC(=NNC(=O)c1ccc(C(=O)NCc2ccccn2)s1)c1nn(C)c(-c2ccc(C(F)(F)F)cc2)c1O.[K] [Synthetic Example 2, 5-{1-[4-hydroxy-1-methyl-5-(4-trifluoromethylphenyl)-1H-pyrazol-3-yl]ethylidenehydrazinocarbonyl}thiophene-2-carboxylic Acid 2-picolylamide Potassium Salt]
Cmax [2]: 1200 ng/mL
Colony count at 1 μg/mL [1]: 121
